The nature of data set [1]: Human liver microsome (HLM) metabolic stability assay. It is filed as in vitro ADME. The note with it: human liver microsomes, 1 uM compound, 37° C., 60 min; % hepatic blood flow. As to the method: Assessment of Metabolic Stability
The 5 time point, high-throughput human liver microsome (HLM) metabolic stability assay is designed to determine in vitro compound metabolism. Compounds are incubated with HLMs at a concentration of 1 uM, at 37° C., for a total of 60 min. The percent of compound remaining at 5, 15, 30, and 60 min is used to calculate the t1/2 (min), CLint (mL/min/kg), CLh (mL/min/kg), and % Qh. The assay is based on a 96-well format and can accommodate up to 92 compounds per plate (n=1).
Using the 96-well multi-channel head, the Biomek FX, equipped with a Peltier heating block/shaker, is programmed to accomplish the following steps: • 1. Pipette 175 uL of 1.15 mg/mL microsomes into each of the 96 conical inserts (Analytical Sales and Products, catalog number 96PL05) that fit into the plate of the Peltier heating block/shaker (the incubation plate) • 2. Add 5 uL of compounds from the assay plate to the microsomes and shake the mixture at 600 rpm at 42.1° C. for 10 min (a setting of 42.1° C. on the Peltier is required for the samples to incubate at 37° C.) • 3. After 10 min, prompt the user to add the NADPH plate to the deck and add 20 uL from the NADPH plate to the incubation plate to start the reaction • 4. Add 215 uL of 100%, cold acetonitrile containing an internal standard(s) to a 0 minute, 5 minute, 15 minute, 30 minute, and 60 minute “quench” plate • 5. At 0 min, 5 min, 15 min, 30 min, and 60 min into the incubation, aspirate 12 uL from the incubation mixture and add it to the quench solution to stop the reaction • 6. Add 185 uL HPLC grade water to each well of the 0, 5, 15, 30 and 60 minute quench plates to dilute compounds to the appropriate concentration for the mass spectrometer
After all time points are collected, the quench plates are sealed with 96-well pierceable plate mats or heat sealing foil and centrifuged at 3000 rpm for 15 min to pellet the microsomes.
The plates are analyzed using LC/MS/MS with electron spray ionization (ESI) and the previously determined MRM transitions. The LC method includes the following parameters:
Using an Excel template in Activitybase, the peak areas corresponding to 5, 15, 30 and 60 min are compared to the peak area at 0 min to calculate the percent of remaining compound using the following equation:
Percent compound remaining=(AUC at Time t min/AUC at Time 0 min)×100 where t=0, 5, 15, 30 or 60 min.
Time (min) is plotted against the natural logarithm (Ln) of the percent compound remaining to determine the slope. The slope is used to calculate t1/2 (min) using the equation, t1/2=0.693/slope.
Clint, Intrinsic Clearance

Another data set deals with T1, RORγ (Homo sapiens, UniProt P51449).
T1 construct: expressed in transfected cells; host or cells: HEK 293 cells, transiently cotransfected with pGL4.3 luc2P/GAL4UAS/Hygro reporter
T1 sequence (P51449 269-508 limits assumed): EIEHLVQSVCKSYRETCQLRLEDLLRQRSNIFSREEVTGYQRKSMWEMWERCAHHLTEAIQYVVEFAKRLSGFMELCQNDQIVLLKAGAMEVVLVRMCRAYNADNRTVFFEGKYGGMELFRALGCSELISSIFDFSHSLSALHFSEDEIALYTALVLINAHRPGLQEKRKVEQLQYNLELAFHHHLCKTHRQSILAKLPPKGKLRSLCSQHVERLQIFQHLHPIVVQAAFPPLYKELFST
Nature of the data set: RORγ Reporter Gene Assay (RGA), luciferase transactivation in transiently transfected HEK 293 cells. It is filed as cell-based. The note with it: HEK 293 cells cotransfected with pGL4.3 luc2P/GAL4UAS and pBIND Gal4DBD hRORC LBD; 20-24 h incubation. As to the method:
Reporter Gene Assay (RGA)
A nuclear receptor transactivation assay is performed to quantitate the ability of test compounds to inhibit RORγ transactivation of a luciferase reporter. A similar assay is described in: Khan et al., Bioorganic & Medicinal Chemistry Letters 23 (2013), 532-536. The system uses transiently transfected HEK 293 cells cotransfected with two plasmids (pGL4.3, luc2P/GAL4UAS/Hygro, and pBIND, Gal4DBD hRORC LBD1-3). The positive control is co-transiently transfected with both plasmids, and the negative control contains the pGL4.3 promoter sequence. Assays are assembled in 384 well plates where transiently transfected cells and test compound at varying concentrations are incubated for 20-24 h. The next day, assays plates are taken out and equilibrated at RT for 20-30 minutes. Bright-Glo™ Luciferase Assay System is used to detect Luciferase production. After addition of Bright GLO detection reagent, the plates are incubated at RT for 20 minutes. The plates are read on an Envision plate reader to measure luminescence signal. The RLU signal is converted to POC relative to control and blank wells.
Compound Dilution Buffer:
Bright Glo Luciferase Assay System: Promega #E2620
Thaw lysis buffer provided in kit, add 100 mL lysis buffer to substrate powder.

Turning to `CC[C@@H](C)n1c(=O)c(NCc2ccc(S(=N)(=O)CC)cc2)nc2c(C)nc(-c3c(C)ncnc3C3CC3)nc21` (single isomer, unassigned) [Example 26a], in data set [1], the “HLM (% Qh)” value is 25 % Qh. At RORγ, this molecule came in with a half-inhibitory concentration (IC50) of 109 nM.
Regarding `CC[C@@H](C)n1c(=O)c(NCc2ccc(S(=N)(=O)CC)cc2)nc2c(C)nc(-c3c(C)ncnc3C3CC3)nc21` (single isomer, unassigned) [Example 26b], the “HLM (% Qh)” value in data set [1] was 25 % Qh. The molecule further had an IC50 at RORγ of 170 nM.
The like results for `Cc1ncnc(C2CC2)c1-c1nc(C)c2nc(NCc3ccc(S(C)(=N)=O)cc3)c(=O)n([C@@H](C)C3CC3)c2n1` (single isomer, unassigned) [Example 27a] were, in that order, <24 % Qh and 210 nM.
On to `Cc1ncnc(C2CC2)c1-c1nc(C)c2nc(NCc3ccc(S(C)(=N)=O)cc3)c(=O)n([C@@H](C)C3CC3)c2n1` (single isomer, unassigned) [Example 27b], for which the “HLM (% Qh)” value in data set [1] is reported as <24 % Qh. At RORγ, this molecule gave an IC50 of 265 nM.
As to `CC[C@@H](C)n1c(=O)c(NCc2ccc(S(=N)(=O)CC)cc2)nc2c(C)nc(-c3c(OC)ncnc3C3CC3)nc21` (single isomer, unassigned) [Example 29a], the “HLM (% Qh)” value in data set [1] was 73 % Qh. In addition, the midpoint of inhibition on RORγ, the IC50, lay at 235 nM.
Taken in the same sequence, the figures for `CC[C@@H](C)n1c(=O)c(NCc2ccc(S(=N)(=O)CC)cc2)nc2c(C)nc(-c3c(OC)ncnc3C3CC3)nc21` (single isomer, unassigned) [Example 29b] were 48 % Qh and 170 nM.
As to `CCS(=N)(=O)c1ccc(CNc2nc3c(C)nc(-c4c(C)ncnc4C4CC4)nc3n([C@@H](C)C(F)(F)F)c2=O)cc1` (single isomer, unassigned) [Example 34a], the “HLM (% Qh)” value in data set [1] turned out to be 25 % Qh. Also, the midpoint of inhibition against RORγ, the IC50, lay at 210 nM.
The like results for `CCS(=N)(=O)c1ccc(CNc2nc3c(C)nc(-c4c(C)ncnc4C4CC4)nc3n([C@@H](C)C(F)(F)F)c2=O)cc1` (single isomer, unassigned) [Example 34b] were, in that order, <24 % Qh and 170 nM.
Taken in the same sequence, the figures for `CCS(=N)(=O)c1ccc(CNc2nc3c(C)nc(-c4c(C)ncnc4C4CC4)nc3n([C@@H](C)C3CC3)c2=O)cc1` (single isomer, unassigned) [Example 36a] were <24 % Qh and 260 nM.
The like results for `CCS(=N)(=O)c1ccc(CNc2nc3c(C)nc(-c4c(C)ncnc4C4CC4)nc3n([C@@H](C)C3CC3)c2=O)cc1` (single isomer, unassigned) [Example 36b] were, in that order, <24 % Qh and 245 nM.
On to `CCS(=N)(=O)c1ccc(CNc2nc3c(C)nc(-c4c(C)ncnc4C4CC4)nc3n([C@@H](C)C3CC3)c2=O)nc1` (single isomer, unassigned) [Example 42a], for which the “HLM (% Qh)” value in data set [1] is reported as <24 % Qh. This molecule also returned an IC50 against RORγ of 270 nM.
Turning to `CCS(=N)(=O)c1ccc(CNc2nc3c(C)nc(-c4c(C)ncnc4C4CC4)nc3n([C@@H](C)C3CC3)c2=O)nc1` (single isomer, unassigned) [Example 42b], the “HLM (% Qh)” value in data set [1] is <24 % Qh. Besides, half-maximal inhibition at RORγ (IC50) required 390 nM.
On to `Cc1ncnc(C2CC2)c1-c1nc(C)c2nc(NCc3ccc(S(C)(=N)=O)cn3)c(=O)n([C@@H](C)C3CC3)c2n1` (single isomer, unassigned) [Example 43a], for which, in data set [1], the “HLM (% Qh)” value is on record as <24 % Qh. This molecule also yielded an IC50 against RORγ of 730 nM.
The like results for `Cc1ncnc(C2CC2)c1-c1nc(C)c2nc(NCc3ccc(S(C)(=N)=O)cn3)c(=O)n([C@@H](C)C3CC3)c2n1` (single isomer, unassigned) [Example 43b] were, in that order, <24 % Qh and 400 nM.
Taken in the same sequence, the figures for `Cc1ncnc(C2CC2)c1-c1nc(C)c2nc(NCc3ccc(S(C)(=N)=O)cc3)c(=O)n([C@@H](C)C(F)(F)F)c2n1` (single isomer, unassigned) [Example 91a] were <24 % Qh and 295 nM.
For `Cc1ncnc(C2CC2)c1-c1nc(C)c2nc(NCc3ccc(S(C)(=N)=O)cc3)c(=O)n([C@@H](C)C(F)(F)F)c2n1` (single isomer, unassigned) [Example 91b], in data set [1], the “HLM (% Qh)” value is listed as <24 % Qh. Besides, on RORγ, the half-inhibitory concentration (IC50) was determined as 255 nM.
Turning to `COc1ncnc(C2CC2)c1-c1nc(C)c2nc(NCc3ccc(S(C)(=N)=O)cc3)c(=O)n([C@@H](C)C(F)(F)F)c2n1` (single isomer, unassigned) [Example 99a], in data set [1], the “HLM (% Qh)” value amounted to 41 % Qh. For the same molecule, it took 230 nM to reach half-maximal inhibition against RORγ (IC50).
`COc1ncnc(C2CC2)c1-c1nc(C)c2nc(NCc3ccc(S(C)(=N)=O)cc3)c(=O)n([C@@H](C)C(F)(F)F)c2n1` (single isomer, unassigned) [Example 99b]: the “HLM (% Qh)” value in data set [1] is reported as 41 % Qh. On RORγ, the 50% inhibitory concentration (IC50) came to 260 nM.
Turning to `CCS(=N)(=O)c1ccc(CNc2nc3c(C)nc(-c4c(OC)ncnc4C4CC4)nc3n([C@@H](C)C(F)(F)F)c2=O)nc1` (single isomer, unassigned) [Example 101a], the “HLM (% Qh)” value in data set [1] was <24 % Qh. Further, the IC50 against RORγ stood at 365 nM.
As for `CCS(=N)(=O)c1ccc(CNc2nc3c(C)nc(-c4c(OC)ncnc4C4CC4)nc3n([C@@H](C)C(F)(F)F)c2=O)nc1` (single isomer, unassigned) [Example 101b], the “HLM (% Qh)” value in data set [1] is recorded as <24 % Qh. Moreover, the midpoint of inhibition on RORγ, the IC50, lay at 315 nM.
For the molecule `CCS(=N)(=O)c1ccc(CNc2nc3c(C)nc(-c4c(C)ncnc4C4CC4)nc3n([C@@H](C)C(F)(F)F)c2=O)nc1` (single isomer, unassigned) [Example 102a], in data set [1], the “HLM (% Qh)” value is on record as <24 % Qh. Moreover, half-maximal inhibition against RORγ (IC50) was put at 535 nM.
Taken in the same sequence, the figures for `CCS(=N)(=O)c1ccc(CNc2nc3c(C)nc(-c4c(C)ncnc4C4CC4)nc3n([C@@H](C)C(F)(F)F)c2=O)nc1` (single isomer, unassigned) [Example 102b] were <24 % Qh and 640 nM.
Taken in the same sequence, the figures for `COc1ncnc(C2CC2)c1-c1nc(C)c2nc(NCc3ccc(S(C)(=N)=O)cn3)c(=O)n([C@@H](C)C(F)(F)F)c2n1` (single isomer, unassigned) [Example 105a] were <24 % Qh and 890 nM.
On to `COc1ncnc(C2CC2)c1-c1nc(C)c2nc(NCc3ccc(S(C)(=N)=O)cn3)c(=O)n([C@@H](C)C(F)(F)F)c2n1` (single isomer, unassigned) [Example 105b], for which the “HLM (% Qh)” value in data set [1] came out at 27 % Qh. This molecule returned a concentration for half-maximal inhibition (IC50) against RORγ of 510 nM.
Taken in the same sequence, the figures for `Cc1ncnc(C2CC2)c1-c1nc(C)c2nc(NCc3ccc(S(C)(=N)=O)cn3)c(=O)n([C@@H](C)C(F)(F)F)c2n1` (single isomer, unassigned) [Example 106a] were <24 % Qh and 1300 nM.
For the molecule `CCS(=O)(=O)c1ccc(CNc2nc3c(C)nc(-c4c(C)ncnc4C4CC4)nc3n([C@@H](C)C3CC3)c2=O)nc1` [Example 68], the “HLM (% Qh)” value in data set [1] was <24 % Qh.

The IC50 is the concentration at which inhibition is half-maximal. A lower IC50 goes with inhibition by little substance.

The values are drawn from US10450314B2, “Pteridine derivatives as modulators of ROR gamma” (Boehringer Ingelheim International GmbH, priority 2015, dated 2019).
